Experimental data taken from PubChem BioAssay (NCI).
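The compound was tested at five concentrations on cells cultured in 96-well plates, with a 48-hour exposure period. TGI denotes the concentration required for complete inhibition of growth.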

Experiments:
Assay in all cases: NCI anticancer screen, dose series, 48 h
A498 renal = tested on: A498 renal
OVCAR-3 ovarian = tested on: OVCAR-3 ovarian
OVCAR-4 ovarian = tested on: OVCAR-4 ovarian
MDA-MB-435 = tested on: MDA-MB-435
MDA-N = tested on: MDA-N
CAKI-1 renal = tested on: CAKI-1 renal
SW-620 colon = tested on: SW-620 colon
MOLT-4 leukemia = tested on: MOLT-4 leukemia
EKVX NSCLC = tested on: EKVX NSCLC
MDA-MB-231 breast = tested on: MDA-MB-231 breast
SK-MEL-28 melanoma = tested on: SK-MEL-28 melanoma
MCF7 breast = tested on: MCF7 breast
NCI-H460 lung = tested on: NCI-H460 lung
OVCAR-5 ovarian = tested on: OVCAR-5 ovarian
DU-145 prostate = tested on: DU-145 prostate
LOX IMVI melanoma = tested on: LOX IMVI melanoma
UACC-257 melanoma = tested on: UACC-257 melanoma
HS 578T breast = tested on: HS 578T breast
HL-60(TB) leukemia = tested on: HL-60(TB) leukemia
786-0 renal = tested on: 786-0 renal
HCT-15 colon = tested on: HCT-15 colon
PC-3 prostate = tested on: PC-3 prostate
COLO 205 colon = tested on: COLO 205 colon
K-562 leukemia = tested on: K-562 leukemia
SNB-19 CNS = tested on: SNB-19 CNS
HOP-92 NSCLC = tested on: HOP-92 NSCLC
CCRF-CEM leukemia = tested on: CCRF-CEM leukemia
IGROV1 ovarian = tested on: IGROV1 ovarian
HCC-2998 colon = tested on: HCC-2998 colon
A549 NSCLC = tested on: A549 NSCLC
NCI-H522 lung = tested on: NCI-H522 lung
HCT-116 colon = tested on: HCT-116 colon
RPMI-8226 leukemia = tested on: RPMI-8226 leukemia
HOP-62 NSCLC = tested on: HOP-62 NSCLC
T-47D breast = tested on: T-47D breast
M14 melanoma = tested on: M14 melanoma
SF-268 CNS = tested on: SF-268 CNS
BT-549 breast = tested on: BT-549 breast
SN12C renal = tested on: SN12C renal
SF-295 CNS = tested on: SF-295 CNS
HT29 colon = tested on: HT29 colon
NCI-H226 lung = tested on: NCI-H226 lung
U251 CNS = tested on: U251 CNS
KM12 colon = tested on: KM12 colon
SNB-75 CNS = tested on: SNB-75 CNS
OVCAR-8 ovarian = tested on: OVCAR-8 ovarian
NCI-H23 lung = tested on: NCI-H23 lung
UACC-62 melanoma = tested on: UACC-62 melanoma
SR leukemia = tested on: SR leukemia
RXF 393 renal = tested on: RXF 393 renal
SK-MEL-2 melanoma = tested on: SK-MEL-2 melanoma
MALME-3M melanoma = tested on: MALME-3M melanoma
SF-539 CNS = tested on: SF-539 CNS
ACHN renal = tested on: ACHN renal
TK-10 renal = tested on: TK-10 renal
SK-OV-3 ovarian = tested on: SK-OV-3 ovarian
SK-MEL-5 melanoma = tested on: SK-MEL-5 melanoma
UO-31 renal = tested on: UO-31 renal
NCI/ADR-RES ovarian = tested on: NCI/ADR-RES ovarian

SMILES: C/C(=C1/N=C(c2ccccc2)OC1=O)c1cccs1
- TGI (A498 renal): > 100 µM
- TGI (OVCAR-3 ovarian): > 100 µM
- TGI (OVCAR-4 ovarian): > 100 µM
- TGI (MDA-MB-435): > 100 µM
- TGI (MDA-N): > 100 µM
- TGI (CAKI-1 renal): > 100 µM
- TGI (SW-620 colon): > 100 µM
- TGI (MOLT-4 leukemia): > 100 µM
- TGI (EKVX NSCLC): > 100 µM
- TGI (MDA-MB-231 breast): > 100 µM
- TGI (SK-MEL-28 melanoma): > 100 µM
- TGI (MCF7 breast): > 100 µM
- TGI (NCI-H460 lung): > 100 µM
- TGI (OVCAR-5 ovarian): > 100 µM
- TGI (DU-145 prostate): > 100 µM
- TGI (LOX IMVI melanoma): > 100 µM
- TGI (UACC-257 melanoma): > 100 µM
- TGI (HS 578T breast): > 100 µM
- TGI (HL-60(TB) leukemia): > 100 µM
- TGI (786-0 renal): > 100 µM
- TGI (HCT-15 colon): > 100 µM
- TGI (PC-3 prostate): > 100 µM
- TGI (COLO 205 colon): > 100 µM
- TGI (K-562 leukemia): > 100 µM
- TGI (SNB-19 CNS): > 100 µM
- TGI (HOP-92 NSCLC): > 100 µM
- TGI (CCRF-CEM leukemia): > 100 µM
- TGI (IGROV1 ovarian): > 100 µM
- TGI (HCC-2998 colon): > 100 µM
- TGI (A549 NSCLC): > 100 µM
- TGI (NCI-H522 lung): > 100 µM
- TGI (HCT-116 colon): > 100 µM
- TGI (RPMI-8226 leukemia): > 100 µM
- TGI (HOP-62 NSCLC): > 100 µM
- TGI (T-47D breast): > 100 µM
- TGI (M14 melanoma): > 100 µM
- TGI (SF-268 CNS): > 100 µM
- TGI (BT-549 breast): > 100 µM
- TGI (SN12C renal): > 100 µM
- TGI (SF-295 CNS): > 100 µM
- TGI (HT29 colon): > 100 µM
- TGI (NCI-H226 lung): > 100 µM
- TGI (U251 CNS): > 100 µM
- TGI (KM12 colon): > 100 µM
- TGI (SNB-75 CNS): > 100 µM
- TGI (OVCAR-8 ovarian): > 100 µM
- TGI (NCI-H23 lung): > 100 µM
- TGI (UACC-62 melanoma): > 100 µM
- TGI (SR leukemia): > 100 µM
- TGI (RXF 393 renal): > 100 µM
- TGI (SK-MEL-2 melanoma): > 100 µM
- TGI (MALME-3M melanoma): > 100 µM
- TGI (SF-539 CNS): > 100 µM
- TGI (ACHN renal): > 100 µM
- TGI (TK-10 renal): > 100 µM
- TGI (SK-OV-3 ovarian): > 100 µM
- TGI (SK-MEL-5 melanoma): > 100 µM

SMILES: Cc1cc(C)n(CN(Cn2nc(C)cc2C)c2ccc(N(Cn3nc(C)cc3C)Cn3nc(C)cc3C)cc2)n1
- TGI (A498 renal): 63.2 µM
- TGI (OVCAR-3 ovarian): 49.3 µM
- TGI (OVCAR-4 ovarian): 43 µM
- TGI (MDA-MB-435): 35.9 µM
- TGI (MDA-N): 38.4 µM
- TGI (CAKI-1 renal): 62.4 µM
- TGI (SW-620 colon): 61.4 µM
- TGI (UO-31 renal): 95.2 µM
- TGI (MOLT-4 leukemia): > 100 µM
- TGI (EKVX NSCLC): 54.1 µM
- TGI (MDA-MB-231 breast): 88.1 µM
- TGI (SK-MEL-28 melanoma): 37.1 µM
- TGI (MCF7 breast): 44.4 µM
- TGI (NCI/ADR-RES ovarian): 43.2 µM
- TGI (NCI-H460 lung): 63.8 µM
- TGI (OVCAR-5 ovarian): 51.1 µM
- TGI (DU-145 prostate): 58.3 µM
- TGI (UACC-257 melanoma): 40.6 µM
- TGI (HS 578T breast): 57 µM
- TGI (HL-60(TB) leukemia): > 100 µM
- TGI (786-0 renal): 43.4 µM
- TGI (HCT-15 colon): 45.4 µM
- TGI (PC-3 prostate): 74.6 µM
- TGI (COLO 205 colon): 31.5 µM
- TGI (K-562 leukemia): 50.3 µM
- TGI (SNB-19 CNS): 64.5 µM
- TGI (HOP-92 NSCLC): 62.2 µM
- TGI (CCRF-CEM leukemia): 63.9 µM
- TGI (IGROV1 ovarian): 50.7 µM
- TGI (A549 NSCLC): 89.1 µM
- TGI (NCI-H522 lung): 42.5 µM
- TGI (HCT-116 colon): 31.3 µM
- TGI (RPMI-8226 leukemia): 40 µM
- TGI (HOP-62 NSCLC): 52.7 µM
- TGI (T-47D breast): 51.8 µM
- TGI (M14 melanoma): 36.5 µM
- TGI (SF-268 CNS): 69.7 µM
- TGI (BT-549 breast): 39.2 µM
- TGI (SN12C renal): 51.9 µM
- TGI (SF-295 CNS): 83.8 µM
- TGI (HT29 colon): 45 µM
- TGI (U251 CNS): 91.1 µM
- TGI (KM12 colon): 58.2 µM
- TGI (OVCAR-8 ovarian): 77.4 µM
- TGI (NCI-H23 lung): 58.6 µM
- TGI (UACC-62 melanoma): 44.9 µM
- TGI (SR leukemia): > 100 µM
- TGI (RXF 393 renal): 42.6 µM
- TGI (SK-MEL-2 melanoma): 50.1 µM
- TGI (MALME-3M melanoma): 41.8 µM
- TGI (SF-539 CNS): 35.3 µM
- TGI (ACHN renal): 38.2 µM
- TGI (TK-10 renal): 69.8 µM
- TGI (SK-OV-3 ovarian): 75.2 µM
- TGI (SK-MEL-5 melanoma): 30.9 µM
